# Data reported in US20240360174A1, “CELL-PENETRATING PEPTIDE SEQUENCES” (Ohio State Innovation Foundation, priority 2016, published 2024).
# Bridge positions count the residues as written; N and C are the ends. Square brackets hold non-standard residues; d marks the D form. Ends that are not written are not given here. 2Nal = N[C@@H](Cc1ccc2ccccc2c1)C(=O)O; Pip = O=C(O)[C@@H]1CCCCN1; Dap = NC[C@H](N)C(=O)O
# Test system: HeLa cells
# Assay: Cellular uptake / cytosolic delivery efficiency of NF-labelled peptides by flow cytometry
# Assay type: cell-based
# Details: 2 h, 5 mM naphthofluorescein-labelled peptide, relative to CPP 1 (100%), mean ± S.D. of three independent experiments
# From the text: Absolute cytosolic delivery efficiency is the ratio of cytosolic concentration of a CPP (or a CPP-cargo conjugate) over the concentration of the CPP (or the CPP-cargo conjugate) in the growth medium. Relative cytosolic delivery efficiency refers to the concentration of a CPP in the cytosol compared to the concentration of a control CPP in the cytosol. Quantification can be achieved by fluorescently labeling the CPP (e.g., with a FTIC dye) and measuring the fluorescence intensity using techniques well-known in the art.
# In particular embodiments, relative cytosolic delivery efficiency is determined by comparing (i) the amount of a CPP of the invention internalized by a cell type (e.g., HeLa cells) to (ii) the amount of the control CPP internalized by the same cell type. To measure relative cytosolic delivery efficiency, the cell type may be incubated in the presence of a cell-penetrating peptide of the invention for a specified period of time (e.g., 30 minutes, 1 hour, 2 hours, etc.) after which the amount of the CPP internalized by the cell is quantified using methods known in the art, e.g., fluorescence microscopy. Separately, the same concentration of the control CPP is incubated in the presence of the cell type over the same period of time, and the amount of the control CPP internalized by the cell is quantified.
# To determine cellular uptake efficiency of the CPPs disclosed herein, HeLa cells were cultured in 12-well plates (1.5×10^5 cells per well) overnight. The cells were incubated for 2 h with […] naphthofluorescein (NF)-labelled peptide in cellular media. At the end of incubation, the cells were washed with DPBS twice, detached from the plate with 0.25% trypsin, diluted into clear DMEM, pelleted at 250 g for 5 min, washed twice with DPBS, resuspended in DPBS, and analyzed on a BD FACS LSR II flow cytometer. For NF-labelled peptides, a 633-nm laser was used for excitation and the fluorescence emission was analyzed in the APC channel. Absolute cellular uptake efficiency was determined by comparing the concentration (via fluorescence intensity) of the CPP in the cytosol to the concentration in the extracellular medium.
row,Substance,Relative Cytosolic Delivery Efficiency [%]
1,"Ac-(Dap-fFRrRrD) (Ac-[Dap][dF]FR[dR]R[dR]D; not fully specified (bridges); printed as Ac-(Dap-fFRrRrD); also: cyclic, closure sites not given here) [SAR 67]",126 ± 33
2,"Ac-(Lys-fFRrRrD) (K[dF]FR[dR]R[dR]D; not fully specified (N-terminus, bridges); printed as Ac-(Lys-fFRrRrD); also: cyclic, closure sites not given here) [SAR 66]",129 ± 9
3,SAR 68 (CWWRRRRC; disulfide 1-8),51
4,SAR 69 (CWWVRRRRC; disulfide 1-9),67
5,SAR 70 (CFWRRRRC; disulfide 1-8),49
6,SAR 71 (CWWWRRRC; disulfide 1-8),135
7,cyclo(FFFRAQ) (cyclic) [SAR 26],52 ± 2
8,cyclo(FFFRRQ) (cyclic) [SAR 27],125 ± 25
9,cyclo(FFFRRRQ) (cyclic) [SAR 34],231 ± 43
10,cyclo(FFFRRRRQ) (cyclic) [SAR 45],122 ± 20
11,cyclo(FFFRRRRRQ (cyclic) [SAR 53],145 ± 27
12,cyclo(FFFRRRRRR (FFFRRRRRRQ; cyclic) [SAR 54],141 ± 10
13,cyclo(FFRFRRQ) (cyclic) [SAR 38],106 ± 22
14,cyclo(FFRRFRQ) (cyclic) [SAR 39],86 ± 12
15,cyclo(FFRRFRRQ) (cyclic) [SAR 50],46 ± 2
16,cyclo(FFRRRFQ) (cyclic) [SAR 35],158 ± 21
17,cyclo(FFRRRQ) (cyclic) [SAR 19],89 ± 34
18,cyclo(FFRRRRFQ) (cyclic) [SAR 51],162 ± 16
19,cyclo(FFRRRRQ) (cyclic) [SAR 28],89 ± 27
20,cyclo(FFRrRQ) (cyclo(FFR[dR]RQ); SMILES N=C(N)NCCC[C@@H]1NC(=O)[C@H](Cc2ccccc2)NC(=O)[C@H](Cc2ccccc2)NC(=O)[C@H](CCC(N)=O)NC(=O)[C@H](CCCNC(=N)N)NC(=O)[C@@H](CCCNC(=N)N)NC1=O) [SAR 21],59 ± 7

row,Substance,Relative Cytosolic Delivery Efficiency [%]
1,cyclo(FFrRrQ) (cyclo(FF[dR]R[dR]Q); SMILES N=C(N)NCCC[C@@H]1NC(=O)[C@@H](CCCNC(=N)N)NC(=O)[C@H](Cc2ccccc2)NC(=O)[C@H](Cc2ccccc2)NC(=O)[C@H](CCC(N)=O)NC(=O)[C@@H](CCCNC(=N)N)NC1=O) [SAR 20],118 ± 5
2,cyclo(FRFRFRQ) (cyclic) [SAR 42],105 ± 14
3,cyclo(FRFRRQ) (cyclic) [SAR 22],15 ± 3
4,cyclo(FRFRRRQ) (cyclic) [SAR 33],132 ± 57
5,cyclo(FRRFFRQ) (cyclic) [SAR 40],109 ± 11
6,cyclo(FRRFFRRQ) (cyclic) [SAR 52],127 ± 22
7,cyclo(FRRFRFQ) (cyclic) [SAR 41],101 ± 16
8,cyclo(FRRFRQ) (cyclic) [SAR 23],38 ± 10
9,cyclo(FRRFRRQ) (cyclic) [SAR 29],31 ± 3
10,cyclo(FRRRFQ) (cyclic) [SAR 24],25 ± 4
11,cyclo(FRRRFRQ) (cyclic) [SAR 30],20 ± 3
12,cyclo(FfFRrRQ) (cyclo(F[dF]FR[dR]RQ); SMILES N=C(N)NCCC[C@@H]1NC(=O)[C@H](Cc2ccccc2)NC(=O)[C@@H](Cc2ccccc2)NC(=O)[C@H](Cc2ccccc2)NC(=O)[C@H](CCC(N)=O)NC(=O)[C@H](CCCNC(=N)N)NC(=O)[C@@H](CCCNC(=N)N)NC1=O) [SAR 57],218 ± 9
13,cyclo(FfFrRrQ) (cyclo(F[dF]F[dR]R[dR]Q); SMILES N=C(N)NCCC[C@@H]1NC(=O)[C@@H](CCCNC(=N)N)NC(=O)[C@H](Cc2ccccc2)NC(=O)[C@@H](Cc2ccccc2)NC(=O)[C@H](Cc2ccccc2)NC(=O)[C@H](CCC(N)=O)NC(=O)[C@@H](CCCNC(=N)N)NC1=O) [SAR 60],205 ± 30
14,"cyclo(FΦRRRQ) (cyclo(F[2Nal]RRRRQ); SMILES N=C(N)NCCC[C@@H]1NC(=O)[C@H](CCCNC(=N)N)NC(=O)[C@H](CCCNC(=N)N)NC(=O)[C@H](Cc2ccc3ccccc3c2)NC(=O)[C@H](Cc2ccccc2)NC(=O)[C@H](CCC(N)=O)NC(=O)[C@H](CCCNC(=N)N)NC1=O) [SAR 1, control CPP, reference compound]",100 ± 6
15,cyclo(FΦRrRrQ) (cyclo(F[2Nal]R[dR]R[dR]Q); SMILES N=C(N)NCCC[C@@H]1NC(=O)[C@H](Cc2ccc3ccccc3c2)NC(=O)[C@H](Cc2ccccc2)NC(=O)[C@H](CCC(N)=O)NC(=O)[C@@H](CCCNC(=N)N)NC(=O)[C@H](CCCNC(=N)N)NC(=O)[C@@H](CCCNC(=N)N)NC1=O) [SAR 55],212 ± 42
16,cyclo(FΦrRrQ) (cyclo(F[2Nal][dR]R[dR]Q); SMILES N=C(N)NCCC[C@@H]1NC(=O)[C@@H](CCCNC(=N)N)NC(=O)[C@H](Cc2ccc3ccccc3c2)NC(=O)[C@H](Cc2ccccc2)NC(=O)[C@H](CCC(N)=O)NC(=O)[C@@H](CCCNC(=N)N)NC1=O) [SAR 64],63 ± 11
17,cyclo(GΦRRRQ) [SAR 25] (cyclo(G[2Nal]RRRQ); SMILES N=C(N)NCCC[C@@H]1NC(=O)[C@H](Cc2ccc3ccccc3c2)NC(=O)CNC(=O)[C@H](CCC(N)=O)NC(=O)[C@H](CCCNC(=N)N)NC(=O)[C@H](CCCNC(=N)N)NC1=O),49 ± 5
18,cyclo(GΦRRRQ) [SAR 44] (cyclo(G[2Nal]RRRRQ); SMILES N=C(N)NCCC[C@@H]1NC(=O)[C@H](Cc2ccc3ccccc3c2)NC(=O)CNC(=O)[C@H](CCC(N)=O)NC(=O)[C@H](CCCNC(=N)N)NC(=O)[C@H](CCCNC(=N)N)NC(=O)[C@H](CCCNC(=N)N)NC1=O),55 ± 5
19,cyclo(Pip-Nal-Arg-Arg-arg-arg-glu) (cyclo([Pip][2Nal]RR[dR][dR][dE]); SMILES N=C(N)NCCC[C@@H]1NC(=O)[C@H](Cc2ccc3ccccc3c2)NC(=O)[C@@H]2CCCCN2C(=O)[C@@H](CCC(=O)O)NC(=O)[C@@H](CCCNC(=N)N)NC(=O)[C@@H](CCCNC(=N)N)NC(=O)[C@H](CCCNC(=N)N)NC1=O) [Pin1 16],18 ± 2
